According to patent US10168342B2, “Lipid probes and uses thereof” (THE SCRIPPS RESEARCH INSTITUTE, priority 2015, dated 2019):

System: lipids of Neuro2a cells
Assay: Untargeted metabolomics (lipidomic profiling) of Neuro2a cells
Type: cell-based, mouse
Settings: 10 μM, 6 h
Method: Discovery metabolite profiling was performed as described by Saghatelian et al., “Assignment of endogenous substrates to enzymes by global metabolite profiling,” Biochemistry 43:14332-14339 (2004) with several modifications. […] The media from the cells was removed and cells were washed with DPBS (2×5.0 mL) before adding freshly prepared media solutions containing vehicle or compound. After incubating for 6 h at 37° C. and subsequent removal of the media, the cells were harvested by scrapping in cold DPBS (3 mL) and pelleted by centrifugation in glass vials. The pellets were washed once with cold DPBS (3 mL) and then cold […] (2:1) (3 mL) was added. After vortexing, the vials were centrifuged (3,000×g, 10 min, 4° C.) and the bottom (organic) layer was transferred to a new glass vial and concentrated under a stream of N2. Samples were stored at −80° C. until the day of analysis when they were reconstituted in Mobile Phase A (100 μL, see below).
Lipid extracts were analyzed by LC/MS in both positive and negative modes using an Agilent 6520 QTOF instrument and LC separation performed on a Kinetex reversed phase C18 column (50×4.6 mm, 2.6 μm particle size, 100Å). Mobile phase A was composed of 5:1:4 isopropanol:methanol:water and Mobile phase B was composed of 99:1 isopropanol:water. Both mobile phases also contained 0.1% AcOH and NH4OAc (5 mM) to facilitate ionization and LC separation. […] To minimize carryover, LC solvents were cycled between 100% Mobile Phase A and 100% Mobile Phase B over 5 min after each run. Data analysis was performed using XCMS (Smith et al., 2006) software which is freely available online (http://xcmsonline.scripps.edu).

[1] = Neg, m/z 716.52, RT 32.28 min, versus DMSO
[2] = Neg, m/z 721.50, RT 30.94 min, versus DMSO
[3] = Neg, m/z 786.53, RT 31.97 min, versus DMSO
[4] = Neg, m/z 788.54, RT 34.16 min, versus DMSO
[5] = Neg, m/z 808.51, RT 30.14 min, versus DMSO
[6] = Pos, m/z 788.61, RT 35.81 min, versus DMSO

SMILES: CN1CCN(C(=O)c2[nH]c3ccc([N+](=O)[O-])cc3c2-c2ccccc2)CC1 [MJN228, (4-Methylpiperazin-1-yl)(5-nitro-3-phenyl-1H-indol-2-yl)methanone]
- Fold Change, FFA 16:0 (Neg, m/z 255.23, RT 14.24 min, versus DMSO): 1.17 fold
- Fold Change, FFA 18:1 (Neg, m/z 281.25, RT 15.75 min, versus DMSO): 1.23 fold
- Fold Change, FFA 18:0 (Neg, m/z 283.26, RT 20.89 min, versus DMSO): 1.22 fold
- Fold Change, FFA 20:4 (Neg, m/z 303.23, RT 12.39 min, versus DMSO): 1.17 fold
- Fold Change, NAT 24:1 (Neg, m/z 444.31, RT 9.31 min, versus DMSO): 2.51 fold
- Fold Change, NAT 24:0 (Neg, m/z 446.33, RT 13.76 min, versus DMSO): 2.29 fold
- Fold Change, LPE 16:0 (Neg, m/z 452.28, RT 5.02 min, versus DMSO): 1.25 fold
- Fold Change, NAT 26:0 (Neg, m/z 474.36, RT […], versus DMSO): 2.75 fold
- Fold Change, LPE 18:1 (Neg, m/z 478.29, RT 5.66 min, versus DMSO): 1.50 fold
- Fold Change, LPE 18:0 (Neg, m/z 480.31, RT 7.96 min, versus DMSO): 1.43 fold
- Fold Change, feature m/z 596.39 (Neg, m/z 596.39, RT […], versus DMSO): 2.02 fold
- Fold Change, feature m/z 622.41 (Neg, m/z 622.41, RT 12.66 min, versus DMSO): 2.06 fold
- Fold Change, PA 34:1 (Neg, m/z 673.48, RT 33.41 min, versus DMSO): 1.01 fold
- Change (direction), PE 34:1 [1]: DOWN
- Fold Change, PE 34:1 [1]: 1.35 fold
- Change (direction), PG 32:0 [2]: DOWN
- Fold Change, PG 32:0 [2]: 1.26 fold
- Fold Change, PE 36:4 (Neg, m/z 738.51, RT 33.92 min, versus DMSO): 1.46 fold
- Fold Change, PG 34:1 (Neg, m/z 747.52, RT 32.95 min, versus DMSO): 1.22 fold
- Fold Change, PG 34:0 (Neg, m/z 749.53, RT 34.04 min, versus DMSO): 1.24 fold
- Fold Change, PS 34:1 (Neg, m/z 760.51, RT 31.80 min, versus DMSO): 1.07 fold
- Fold Change, PE 38:5 (Neg, m/z 764.52, RT 35.18 min, versus DMSO): 1.02 fold
- Fold Change, PE 38:4 (Neg, m/z 766.54, RT 36.76 min, versus DMSO): 1.01 fold
- Fold Change, PG 36:1 (Neg, m/z 775.55, RT 34.70 min, versus DMSO): 1.02 fold
- Change (direction), PS 36:2 [3]: DOWN
- Fold Change, PS 36:2 [3]: 1.11 fold
- Change (direction), PS 36:1 [4]: DOWN
- Fold Change, PS 36:1 [4]: 1.03 fold
- Change (direction), PS 38:5 [5]: DOWN
- Fold Change, PS 38:5 [5]: 1.05 fold
- elevation of metabolites (NAEs and NATs) versus DMSO (Neuro2a cells, P<0.0001): ≥ 2 fold
- Fold Change, NAE 18:1 (Pos, m/z 326.30, RT 8.36 min, versus DMSO): 2.91 fold
- Fold Change, NAE 18:0 (Pos, m/z 328.32, RT 12.20 min, versus DMSO): 2.00 fold
- Fold Change, MAG 16:0 (Pos, m/z 331.28, RT 8.51 min, versus DMSO): 1.67 fold
- Fold Change, MAG 18:1 (Pos, m/z 358.30, RT 9.68 min, versus DMSO): 1.37 fold
- Fold Change, feature m/z 371.10 (Pos, m/z 371.10, RT 13.51 min, versus DMSO): 2.00 fold
- Fold Change, LPC 18:1 (Pos, m/z 522.35, RT 5.29 min, versus DMSO): 1.24 fold
- Fold Change, LPC 18:0 (Pos, m/z 524.37, RT 7.49 min, versus DMSO): 1.48 fold
- Fold Change, LPC 20:4 (Pos, m/z 544.34, RT 5.29 min, versus DMSO): 1.69 fold
- Fold Change, feature m/z 669.22 (Pos, m/z 669.22, RT 13.52 min, versus DMSO): 2.15 fold
- Fold Change, feature m/z 704.21 (Pos, m/z 704.21, RT 19.42 min, versus DMSO): 2.45 fold
- Fold Change, feature m/z 705.21 (Pos, m/z 705.21, RT 19.44 min, versus DMSO): 2.63 fold
- Fold Change, feature m/z 743.24 (Pos, m/z 743.24, RT 19.42 min, versus DMSO): 2.56 fold
- Fold Change, feature m/z 744.24 (Pos, m/z 744.24, RT 19.44 min, versus DMSO): 2.88 fold
- Fold Change, feature m/z 745.24 (Pos, m/z 745.24, RT 19.44 min, versus DMSO): 2.81 fold
- Fold Change, PC 34:0 (Pos, m/z 762.60, RT 36.86 min, versus DMSO): 1.00 fold
- Fold Change, feature m/z 776.23 (Pos, m/z 776.23, RT 25.46 min, versus DMSO): 2.50 fold
- Fold Change, feature m/z 777.23 (Pos, m/z 777.23, RT 25.48 min, versus DMSO): 2.52 fold
- Fold Change, feature m/z 778.23 (Pos, m/z 778.23, RT 25.47 min, versus DMSO): 2.41 fold
- Fold Change, feature m/z 779.23 (Pos, m/z 779.23, RT 25.47 min, versus DMSO): 2.59 fold
- Change (direction), PC 36:1 [6]: DOWN
- Fold Change, PC 36:1 [6]: 1.04 fold
- Fold Change, feature m/z 817.26 (Pos, m/z 817.26, RT 25.47 min, versus DMSO): 2.35 fold
- Fold Change, feature m/z 818.26 (Pos, m/z 818.26, RT 25.47 min, versus DMSO): 2.51 fold
- Fold Change, feature m/z 819.26 (Pos, m/z 819.26, RT 25.46 min, versus DMSO): 2.85 fold
- Fold Change, feature m/z 820.26 (Pos, m/z 820.26, RT 25.47 min, versus DMSO): 2.79 fold
- Fold Change, feature m/z 850.25 (Pos, m/z 850.25, RT 30.92 min, versus DMSO): 2.42 fold
- Fold Change, feature m/z 851.25 (Pos, m/z 851.25, RT 30.92 min, versus DMSO): 2.41 fold
- Fold Change, feature m/z 852.25 (Pos, m/z 852.25, RT 30.92 min, versus DMSO): 2.46 fold
- Fold Change, feature m/z 853.25 (Pos, m/z 853.25, RT 30.92 min, versus DMSO): 2.61 fold
- Fold Change, feature m/z 924.27 (Pos, m/z 924.27, RT 33.83 min, versus DMSO): 2.14 fold
- Fold Change, feature m/z 925.27 (Pos, m/z 925.27, RT 33.83 min, versus DMSO): 2.19 fold
- Fold Change, feature m/z 926.27 (Pos, m/z 926.27, RT 33.84 min, versus DMSO): 2.27 fold
- Fold Change, feature m/z 927.27 (Pos, m/z 927.27, RT 33.83 min, versus DMSO): 2.19 fold
